pIC50: −log10 of the molar value. “Also recorded” adds a separate entry of the source. Read-outs that look alike come from different tables or passages of the source.
Tests used:
[1] = system: rC100sub and rNOTCH1sub; assay: Cell-free γ-secretase assay, rC100sub and rNOTCH1sub (Appendix Fig S1); assay type: biochemical
Experimental: Although not suited for detailed dose–response studies due to challenges in precise quantification of the cleavage products, we nevertheless conducted several studies to examine how different GSIs affect cleavage in the cell‐free assay. […] We also evaluated a previously reported Notch‐sparing GSI, Avagacestat (BMS‐708163) (Gillman et al, 2010; Albright et al, 2013) using this assay (Appendix Fig S1).
CHAPSO‐solubilized CHO cell membrane was prepared as described in previous report. 25 μg/ml of each substrate was incubated with the membrane (100 μg/ml total protein) in sodium citrate buffer (150 mM, pH 6.5, Roche Complete protease inhibitor added) for 2 h at 37°C. […] The reaction was terminated by placing tubes on ice until immunoprecipitation.
(§1) Immunoprecipitation and mass spectrometry of Aβ and Aβ‐like peptides in cell‐free assay or conditioned media were performed as previously described (Ran et al, 2014). Briefly, the peptides were immunoprecipitated using anti‐Aβ Ab5 antibody bound to sheep anti‐mouse IgG magnetic Dynabeads (Life Technologies) and eluted with 0.1% trifluoroacetic acid (TFA) in water. COOH‐terminal fragments (CTFs) were immunoprecipitated with anti‐FLAG M2 magnetic beads (Sigma). […] Samples were analyzed using a Bruker Microflex LRF‐MALDI‐TOF mass spectrometer.

[2] = system: cAPPC100sub; assay: Cell-based γ-secretase cleavage assay, cAPPC100sub stably overexpressing cells (Aβ ELISA)
Description: (§2) We next tested all GSIs on cAPPC100sub and full‐length APP stably overexpressing cells. […] The low‐dose potentiation of γ‐secretase cleavage was further mechanistically probed using in vitro assays with recombinant substrates and IP‐MS.
(§3) For the cell‐based assay, all substrates contain a human NOTCH4 signal peptide sequence ([…]), amyloid β peptide (Aβ1–25/K16A) epitope tag followed by the juxtamembrane region (JMD) of the given substrate and a FLAG tag ([…]) at the COOH‐terminal. K16A mutant was created to decrease potential α‐secretase cleavage. The cDNAs were generated by gene synthesis conducted by Genscript. A schematic representation of the substrates is provided in Fig 4A, and sequences of the cDNAs and the proteins are provided in Appendix Fig S6. For clarity, these substrates are referred to as cell‐based assay substrates (e.g., NOTCH1 is cNOTCH1sub). Substrate cDNAs were cloned into pCDNA3.1 (Invitrogen, Carlsbad, CA, USA) for expression in H4 cells (ATCC, Manassas, VA).
(§4) H4 cells were cultured in Opti‐mem media (Thermo‐Fisher) supplemented with Hyclone 6% fetal bovine serum (GE, Logan, Utah, USA) and 1% penicillin/streptomycin (Life Technologies, Grand Island, NY, USA). pCDNA3.1 plasmids containing the substrate cDNAs were transfected into H4 cells using FuGENE HD reagent (Madison, WI, USA). Stable cell lines were established using G418 selection. […] Cells and conditioned media were used for WB, IP, and ELISA.
(§5) Sandwich ELISAs used for Aβ detection were performed as previously described (Murphy et al, 1999; Ran et al, 2014). Briefly, Aβ and Aβ‐like peptides in conditioned media were captured with Ab5 antibody and detected with horseradish peroxidase labeled mAb 4G8 (Biolegend). Synthetic Aβ1‐40 was used as standard. All ELISAs were developed with TMB substrate (KPL, Gaithersburg, Maryland, USA). Bis‐Tris precast gels (Biorad, Hercules, CA, USA) were used for all SDS–PAGE. Monoclonal anti‐FLAG M2 antibody (Sigma) and Aβ1‐16 antibody 6E10 (Covance) were used for Western blotting at 1:1,000 dilution. Anti‐CD74 In‐1 antibody (BD Bioscience, San Jose, CA, USA) was used for A20 cell lysate Western blotting at dilution of 1:1,000. MDA‐MB‐231 cell extracts were prepared by lysing cells in RIPA buffer containing protease and phosphatase inhibitors. The lysates were kept on ice for 30 min and vortexed every 10 min, and then centrifuged at 4°C for 10 min at 1,000 g. The supernatants were collected, and protein concentrations were determined by Bradford Assay. Pan‐NOTCH1 antibody (C‐20) (Santa Cruz Biotechnology) and cleaved NOTCH1 (Val1744) antibody (Developmental Studies Hybridoma Bank) were used at 1:500 and 1:100 dilution in the test of endogenous NOTCH1 inhibition with β‐actin expression used as loading control. β‐actin antibody was used at 1:1,000 dilution (Sigma). Band intensities normalized for actin using densitometry analysis with ImageJ Software (NIH, USA).

[3] = system: Aβ40; design: method as in ref Appendix Table S1 (Gavai et al, 2015; Dovey et al, 2001; Cook et al, 2010; Krop et al, 2012; Wei et al, 2010; Luistro et al, 2009; Mitani et al, 2012); details: ref Appendix Table S1 (Gavai et al, 2015; Dovey et al, 2001; Cook et al, 2010; Krop et al, 2012; Wei et al, 2010; Luistro et al, 2009; Mitani et al, 2012); read-out: Reported IC50s Aβ40; cited from earlier work
[4] = system: full‐length APP; assay: Cell-based γ-secretase cleavage assay, full-length APP stably overexpressing cells (Aβ ELISA)
Experimental: as §2, §4, §5

[5] = system: SPP; design: method as in Weihofen et al, 2003; details: concentration up to 100 μM; ref Weihofen et al, 2003; cited from earlier work
[6] = target: cNOTCH2sub (Homo sapiens, UniProt P49768); assay: Cell-based γ-secretase cleavage assay, cNOTCH2sub in H4 cells (Aβ-like peptide ELISA); details: rank among the six GSIs, number in brackets
Experimental: (§6) Using these cell‐based γ‐secretase cleavage assays, we systematically investigated the substrate inhibition profile of BMS‐906024, MK‐0752, PF‐308414, RO4929097, Semagacestat, and DAPT. We treated H4 cells stably expressing cNOTCH1‐4sub with 4 pM to 10 μM of GSIs (Fig 5A and Table 2) and measured the Aβ‐like peptide secreted into the media.
as §3, §4, §5

[7] = system: NOTCH1; assay: Endogenous NOTCH1 cleavage inhibition in MDA-MB-231 cells (NICD Western blot after EDTA activation); assay type: cell-based; details: MDA-MB-231, 100 nM to 12.5 μM, 1 h pretreatment then 5 mM EDTA 5 min
Experimental: (§7) To extend the study to a more physiological system, we assessed endogenous NOTCH1 cleavage inhibition using the triple‐negative breast cancer line MDA‐MB‐231 (Fig 6A). Full‐length blots are shown in source data for Fig 6. NOTCH1 cleavage was detected by Western blotting using the Cell Signaling neo‐epitope NICD antibody. […] The inhibition of endogenous APP in MDA‐MB‐231 cells was also tested by detecting accumulation of APP COOH‐terminal fragments (APP‐CTFs). […] Figure 6D summarized the APP‐CTF band intensities normalized for DMSO group. The original blots are available in source data for Fig 6.
Short‐term endogenous NOTCH1 cleavage inhibition was tested in the triple‐negative breast cancer cell lines MDA‐MB‐231 (ATCC, Manassas, VA). Cells were plated in 60 mm dishes and maintained as monolayer cultures in DMEM medium supplemented with 10% FBS, 1% penicillin/streptomycin, 1% L‐glutamine (Life Technologies), and incubated at 37°C in a humidified 5% CO2 incubator. After the cells reached ~75% confluency, cultures were pretreated with GSIs for 1 h in DMEM at 37°C in a 5% CO2 incubator. GSIs were tested at concentrations of 0, 0.1, 0.5, 2.5, and 12.5 μM. Then, EDTA (5 mM, Life Technologies) was added to the cell cultures to induce Notch activation for 5 min. Following incubation, cell extracts were prepared by lysing cells in RIPA buffer (Santa Cruz Biotechnology) containing protease and phosphatase inhibitors. Western blotting was performed using Cleaved NOTCH1 (Val1744) antibody (Cell Signaling) with β‐actin (Santa Cruz Biotechnology) as loading control. Band intensities were normalized for actin using ImageJ Software (NIH, USA).
as §5

[8] = system: cNOTCH1sub; assay: Cell-based γ-secretase cleavage assay, cNOTCH1sub in H4 cells (Aβ-like peptide ELISA); design: species or system human; details: Aβ-like peptide in media, GSI overnight
Experimental: as §6, §3, §4, §5

[9] = system: cNOTCH1‐4sub and cAPPC100sub; assay: Substrate accumulation in H4 cells stably expressing cNOTCH1-4sub and cAPPC100sub (Western blot); assay type: cell-based, human; details: for substrate accumulation (Western blot), other GSIs tried beside DAPT: authors' response, concentration not given
Experimental: In order to enable us to more definitively characterize the effects of various GSIs on different substrates, we generated H4 cells stably expressing cNOTCH1‐4sub and cAPPC100sub (Fig 4A). Chimeric substrates were detected by WB using anti‐FLAG antibody (Fig 4B). Multiple CTFs are detectable as well as potential dimers for all substrates. Multiple NTF are also detectable using anti‐Aβ 6E10 antibody (Appendix Fig S2) for cNOTCH1, 3, and 4 substrates.
as §4
as §5, with “Pan‐NOTCH1 antibody (C‐20) (Santa Cruz Biotechnology) and cleaved NOTCH1 (Val1744) antibody (Developmental Studies Hybridoma Bank) were used at 1:500 and 1:100 dilution in the test of endogenous NOTCH1 inhibition with β‐actin expression used as loading control. β‐actin antibody was used at 1:1,000 dilution (Sigma). Band intensities normalized for actin using densitometry analysis with ImageJ Software (NIH, USA).” left out

[10] = system: cNOTCH3sub; assay: Cell-based γ-secretase cleavage assay, cNOTCH3sub in H4 cells (Aβ-like peptide ELISA); design: species or system human
Experimental: as §6, §3, §4, §5

[11] = system: APP; assay: Endogenous APP-CTF accumulation in MDA-MB-231 cells (Western blot); assay type: cell-based
Experimental: as §7
Values are mean ± SD of three tests. • APP‐CTF Western blot of MDA‐MB‐231 cells treated with indicated concentration of GSIs for 16 h. • Band intensities of APP‐CTF with 0.1 μM GSIs were normalized for DMSO control group. Values are mean ± SD of three tests. Data information: Original blots are provided as source data. All band intensity data are derived from three independent experiments and are analyzed by one‐way ANOVA using GraphPad Prism6 software. All experiments were repeated three times.Source data are available online for this figure.

[12] = system: cNOTCH1‐4sub; assay: Average of cell-based IC50s on cNOTCH1-4sub in H4 cells; design: species or system human; details: read-out: Average IC50s of each GSI on cNOTCH1‐4sub
Experimental: as §6, §3, §4, §5

[13] = system: cNOTCH4sub; assay: Cell-based γ-secretase cleavage assay, cNOTCH4sub in H4 cells (Aβ-like peptide ELISA); design: species or system human; details: Aβ-like peptide in media, GSI overnight
Experimental: as §6, §3, §4, §5

[14] = target: γ‐secretase (Homo sapiens, UniProt P49768); details: quoted in parentheses in the authors' response, no assay and reference not given; cited from earlier work
[15] = system: cNOTCH1‐4sub and cAPPC100sub; assay: Secretion of Aβ-like peptides from cNOTCH1-4sub and cAPPC100sub H4 cells (ELISA, IP-MS); assay type: cell-based, human
Experimental: The secreted Aβ‐like peptides can be detected using Aβ ELISA method.
as §4
as §1, with “water.” for “water. COOH‐terminal fragments (CTFs) were immunoprecipitated with anti‐FLAG M2 magnetic beads (Sigma).”
Sandwich ELISAs used for Aβ detection were performed as previously described (Murphy et al, 1999; Ran et al, 2014). Briefly, Aβ and Aβ‐like peptides in conditioned media were captured with Ab5 antibody and detected with horseradish peroxidase labeled mAb 4G8 (Biolegend). […] The supernatants were collected, and protein concentrations were determined by Bradford Assay. […]

NC(=O)[C@@H](CCC(F)(F)F)N(Cc1ccc(-c2ncon2)cc1F)S(=O)(=O)c1ccc(Cl)cc1 [Avagacestat]
inhibition of APP versus Notch cleavage [1]: inhibit APP and Notch cleavage equivalently

C[C@H](NC(=O)Cc1cc(F)cc(F)c1)C(=O)N[C@H](C(=O)OC(C)(C)C)c1ccccc1 [DAPT]
pIC50 ([2]; stably overexpressing cells, Aβ ELISA, read-out: IC50 cC100sub): 6.44
pIC50 ([2]; value in parentheses, read-out: IC50 cC100sub, from curves excluding the Aβ level > 120%): 6.67
pIC50 [3]: 7.70
low-dose potentiation of cleavage, APP ([4]; full-length APP overexpressing cells): low‐dose potentiation of cleavage was observed
pIC50 ([4]; full-length APP stably overexpressing cells, Aβ ELISA): 7.49
effect on SPP activity [5]: no effect
rank order of inhibition of cNOTCH2sub [6]: [6]
NICD levels [7]: did not suppress NICD levels to baseline levels at any concentrations
pIC50 [8]: 8.31
substrate accumulation (Western blot) ([9]; 1 μM treatment, H4 cells): did not result in significant substrate accumulation except for cAPPC100sub
effect on cNOTCH3sub cleavage at low concentrations [10]: potentiate
pIC50 ([10]; Aβ-like peptide in media, GSI overnight, read-out: IC50 cNOTCH3sub): 6.21
pIC50 ([10]; value in parentheses, read-out: IC50 cNOTCH3sub, from curves excluding the Aβ level > 120%): 6.58
APP CTF level / accumulation at 100 nM ([11]; MDA-MB-231 (231 cells), 100 nM, triplicate): hard to see; also recorded: did not significantly increase CTF level
concentration from which APP‐CTF process is inhibited ([11]; MDA-MB-231, 16 h): ≥ 500 nM
pIC50 [12]: 6.72
pIC50 [13]: 7.29

CC(C)C[C@H](NC(=O)[C@H](Cc1ccccc1)C[C@@H](O)[C@H](Cc1ccccc1)NC(=O)OC(C)(C)C)C(=O)N[C@@H](Cc1ccccc1)C(N)=O [L685458]
substrate accumulation (Western blot), other GSIs tried beside DAPT [9]: only cAPPC100 show some accumulation
pIC50 [14]: 7.77

C[C@H](NC(=O)[C@@H](O)c1cc(F)cc(F)c1)C(=O)N[C@@H]1C(=O)N(C)c2ccccc2-c2ccccc21 [LY411575, N2‐[(2S)‐2‐(3,5‐difluorophenyl)‐2‐hydroxyethanoyl]‐N1‐[(7S)‐5‐methyl‐6‐oxo ‐6,7‐dihydro‐5H‐dibenzo[b,d]azepin‐7‐yl]‐L‐alaninamide]
substrate accumulation (Western blot), other GSIs tried beside DAPT [9]: only cAPPC100 show some accumulation
Aβ-like peptides in culture media (IP-MS) ([15]; 1 μM): abolished all production
secretion of Aβ-like peptides (ELISA) ([15]; 1 μM applied to cell cultures): almost completely inhibited
